Laboratory results as given in patent EP0340709A1, “(3-Chloro-methyl phenyl)ethyl amines, processes for their production and their use” (BASF Aktiengesellschaft, priority 1988, dated 1989).

System: breitblättrigew unerwünschte Pflanzen
Assay: Greenhouse herbicide test, pre- and post-emergence treatment
Format: in vivo
Conditions: 2,0 kg/ha a.S., Nachauflaufverfahren bzw. Vorauflaufverfahren, 2 bis 4 Wochen
Description: Die herbizide Wirkfung der (3-Chlor-2-methylphenylethylamine der Formel I ließ sich durch Gewächshausversuche zeigen: Zur Aufzucht der Testpflanzen dienten Plastikblumentöpfe mit 300 cm³ Inhalt und lehmigem Sand mit etwa 3 % Humus als Substrat. Die Samen der Testpflanzen wurden nach Arten getrennt flach eingesät.
Bei Vorauflaufbehandlung wurden die aufbereiteten Wirkstoffe unmittelbar danach auf die Erdoberfläche aufgebracht. Sie wurden hierbei in Wasser als Verteilungsmittel suspendiert oder emulgiert und mittels fein verteilender Düsen gespritzt. Nach dem Aufbringen der Mittel wurden die Gefäße leicht beregnet, um Keimung und Wachstum in Gang zu bringen. Danach wurden die Gefäße mit durchsichtigen Plastikhauben abgedeckt, bis die Pflanzen angewaschsen waren. Diese Abdeckung fördert ein gleichmäßiges Keimen der Testpflanzen, sofern dies nicht durch die Wirkstoffe beeinträchtigt wird. Die Aufwandmengen betrugen 2,0 kg/ha.
Zum Zwecke der Nachauflaufbehandlung wurden die Testpflanzen je nach Wuchsform erst bis zu einer Wuchshöhe von 3 bis 15 cm angezüchtet und erst dann behandelt. Die Testpflanzen wurden dafür entweder direkt gesät und in den gleichen Gefäßen aufgezogen oder sie wurden als Keimpflanzen getrennt gezüchtet und einige Tage vor der Behandlung in die Versuchsgefäße verpflanzt. Die Aufwandmengen für die Nachauflaufbehandlung betrugen 2,0 kg Wirkstoff/ha. […]

Structure (SMILES): Cc1c(Cl)cccc1CCNC(=O)c1ccccc1 [Beispiel 3, N-Benzoyl-3-chlor-2-methylphenethylamin]
- herbizide Wirkung (Bekämpfung breitblättriger unerwünschter Pflanzen): sehr gut
